Assay results from PMC10295794, “Pharmacokinetic Analysis of Zonarol, a Marine Algal Hydroquinone, in Mice Using HPLC with Fluorescence Detection” (Antibiotics, 2023).
Where two headings read alike, the source gives them in different places. Values belong to the molecule of their own block, whether it stands above or below them.

Legend:
[1] = cited from earlier work
[2] = cited from earlier work; remark: listed apart in the source
[3] = Plasma concentration of zonarol after oral or intravenous administration in mice (HPLC-FI, non-compartmental analysis); assay type: in vivo; conditions: for time within which plasma concentration remained over the LOQ: LOQ 11.1 ng/mL
Method: (§1) HPLC analysis was carried out on a Shimadzu-20A series instrument (Shimadzu, Japan) connected to a fluorescence detector (RF-10A xl, Shimadzu, Japan). The signals from the fluorescence system were transmitted to LC Solution software for the purposes of analyzing and calculating the peak areas. Chromatographic separation was carried out on an RPAQUEOUS-AR-5 (4.6 × 250 mm) column. The HPLC was operated with a gradient mobile phase system consisting of water containing 0.1% formic acid (phase A) and methanol (phase B) at a flow rate of 1 mL/min. The pump was programmed as follows: phase B was maintained at 40% for the first 5 min, increased from 40% to 80% within the next 25 min, maintained at 80% for the next 10 min, increased to 100% for 10 min, and then decreased back to 40% for 10 min (total gradient time: 60 min). A 50 μL sample was injected into the system with the auto-sampler and conditioned at 4 °C, and the column temperature was maintained at 30 °C.
Male ddY mice (8 weeks old, 40 ± 2 g) were purchased from SLC Inc. (Shizuoka, Japan) and were acclimated to laboratory conditions for 1 week before experiment. The mice were housed in an air-conditioned room at 23 ± 2 °C with 12 h/12 h light–dark illumination cycles at a constant humidity (55 ± 10%) with free access to food (MR stock, Nosan, Japan) and tap water. Exsanguination and autopsy were performed under anesthesia with an overdose of isoflurane (Mylan EPD Ltd., Canonsburg, PA, USA). All procedures were reviewed and approved (R3-9 and R4-2) in terms of animal welfare by the Animal Ethics Committee of Tokyo University of Marine Science and Technology.
The mice were fasted for 12 h before the oral administration of zonarol. Blood samples were collected from the mouse tails at 15, 30, 45, 60, 90, 120, 240, and 480 min after the oral administration of 100 mg/kg of zonarol (n = 5).
The mice were not fasted before the intravenous administration of zonarol but were fasted after the test started. Blood samples were collected from the mouse tails, via the caudal veins, at 5, 15, 30, 45, 60, 90, 120, and 240 min after the intravenous administration of 10 mg/kg of zonarol (n = 6).
Blood samples were immediately centrifuged at 9000 rpm for 5 min. After centrifugation, a 20 μL aliquot of plasma was mixed with 80 μL of MeCN for deproteinization. Then, the mixture was centrifuged at 9000 rpm for 5 min, and the supernatant was used for HPLC analysis.
Data were expressed as the mean ± standard deviation (SD) for the in vitro and the animal experiments. The number of the data is described for each experiment. The pharmacokinetic parameters were calculated with Phoenix Winnonlin software (version 8.1) while using a non-compartmental model. The abnormal data were eliminated after being analyzed via a Box-type drawing with SPSS software (SPSS Inc., Chicago, IL, USA).

[4] = Tissue distribution of zonarol after intravenous administration in mice; assay type: in vivo; conditions: for concentration at 30 min / concentration at 15 min: mouse, iv, 10 mg/kg; for concentration at 30 min: brain; for concentration at 15 min: 15 min after administration
Method: as §1
Blank tissue homogenates were prepared by collecting the liver, kidney, and brain from normal mice after anesthetization. Blank tissue homogenates were used to determine the specificity of zonarol. In the experimental mice, the livers, kidneys, and brains were collected at 15, 30, 60, 120 min after the intravenous administration, via the caudal veins, of 10 mg/kg of zonarol (n = 7). The tissue with added distilled water (mass/volume = 1:4) was homogenized.
Next, a 50 μL of tissue homogenate was mixed with 200 μL of MeCN for deproteinization. Then, the mixture was centrifuged at 9000 rpm for 5 min, and the supernatant was used for HPLC analysis.

[5] = Stability of zonarol with mice plasma during HPLC analysis; assay type: in vitro ADME
Method: as §1
The stability of low, medium, and high concentrations of 20, 80, and 320 ng/mL of zonarol mixed with the plasma of mice was performed under different conditions, including storage at room temperature for 4 h, storage at 37 °C for 4 h, and storage at 4 °C for 12 h and subjection to three freeze–thaw cycles. Next, 20 μL aliquots of low, medium, and high concentration zonarol solutions ([…]) were added to polypropylene tubes with 80 μL of blank plasma. Then, 900 μL of MeCN was added to the mixture, after being incubated under the different conditions described above, for deproteinization. The final nominal concentrations of zonarol were 20, 80, and 320 ng/mL. After deproteinization, the mixtures were centrifuged at […] for 5 min, and the supernatants were used for HPLC analysis. The accuracy of the assay was determined by comparing the nominal concentrations with the corresponding calculated concentrations via linear regression. Every concentration of zonarol was measured three times.

[6] = system: carrageenan-induced paw edema; assay: Carrageenan-induced paw edema in mice after oral bolus zonarol; assay type: in vivo; conditions: estimated from current p.o. 100 mg/kg plasma data and earlier 62.5 mg/kg edema result (ref 16)
[7] = system: carrageenan-induced paw edema; set-up: method as in PMID 25409433; conditions: mice, oral bolus 62.5 mg/kg at −0.5 h; edema at 2 and 4 h after carrageenan; cited from earlier work
[8] = system: DSS-induced ulcerative colitis; set-up: method as in PMID 25409433; conditions: mice, oral 10 mg/kg/day for 2 weeks; cited from earlier work
diet-induced NAFLD = system: diet-induced NAFLD; set-up: method as in PMID 34684455; conditions: mice, oral 10 mg/kg/day for 2 weeks; cited from earlier work
[9] = male, ddY, mouse, plasma, po, p.o. 100 mg/kg, n = 5, mean ± SD
[10] = storage at 4 °C for 12 h, prepared 20 ng/mL
[11] = storage at 4 °C for 12 h, prepared 80 ng/mL
[12] = storage at 4 °C for 12 h, prepared 320 ng/mL
[13] = storage at 37 °C for 4 h, prepared 20 ng/mL
[14] = storage at 37 °C for 4 h, prepared 80 ng/mL
[15] = storage at 37 °C for 4 h, prepared 320 ng/mL
[16] = storage at RT for 4 h, prepared 20 ng/mL
[17] = storage at RT for 4 h, prepared 80 ng/mL
[18] = storage at RT for 4 h, prepared 320 ng/mL
[19] = three cycles of freeze-thaw, prepared 20 ng/mL
[20] = three cycles of freeze-thaw, prepared 80 ng/mL
[21] = three cycles of freeze-thaw, prepared 320 ng/mL

Molecule: fucoxanthin
bioavailability [1]: 0.06%
passage through the BBB ([2]; due to hydrophobic properties): pass through the BBB

Molecule: O=c1c(O)c(-c2ccc(O)c(O)c2)oc2cc(O)cc(O)c12 [quercetin]
absolute bioavailability ([1]; variability depended on gastric contents during ingestion): 16%
accumulation in the brain ([2]; 0.1%-quercetin-containing diet for 11 weeks): did not induce the accumulation

time within which plasma concentration remained over the LOQ ([3]; i.v. 10 mg/kg): ≤ 240 min
AUC(0-t) ([3]; male, ddY, mouse, plasma, iv, i.v. 10 mg/kg, 0 to 240 min, n = 6, mean ± SD, read-out: AUC (AUC0-240) (converted)): 608 ng·h/mL
concentration at 5 min ([3]; male, ddY, mouse, plasma, iv, i.v. 10 mg/kg, 5 min): 878 ± 371 ng/mL
bioavailability ([3]; male, ddY, mouse, plasma, oral, (p.o. AUC/p.o. dose)/(i.v. AUC/i.v. dose) × 100, p.o. 100 mg/kg, i.v. 10 mg/kg): 25%
AUC(0-t) ([3]; male, ddY, mouse, plasma, po, p.o. 100 mg/kg, 0 to 480 min, n = 5, mean ± SD, read-out: AUC (AUC0-480) (converted)): 1520 ng·h/mL
Cmax [3, 9]: 723 ± 75.9 ng/mL
Tmax [3, 9]: 1.25 h
time within which plasma concentration remained over the LOQ ([3]; p.o. 100 mg/kg): ≤ 480 min
concentration at 30 min ([4]; bolus i.v. 10 mg/kg BW, 30 min, read-out: maximal distribution of zonarol in the brain): 2520 ± 1330 ng/g
concentration at 30 min ([4]; i.v. 10 mg/kg, 30 min after administration, n = 7, mean ± SD, read-out: zonarol content in brain (peak)): 2530 ± 1330 ng/g
concentration at 15 min ([4]; kidney, i.v. 10 mg/kg, n = 7, mean ± SD, read-out: zonarol content in kidney (highest)): 1910 ± 1800 ng/g
concentration at 15 min ([4]; liver, i.v. 10 mg/kg, n = 7, mean ± SD, read-out: zonarol content in liver (highest)): 1320 ± 1040 ng/g
accuracy of each group (plasma stability) ([5]; all storage conditions and concentrations of Table 2): 90.8–112.9%
Accuracy (detected/prepared × 100) [5, 10]: 104.9%
Zonarol detected in plasma [5, 10]: 21.0 ± 1.33 ng/mL
Accuracy (detected/prepared × 100) [5, 11]: 92.3%
Zonarol detected in plasma [5, 11]: 73.8 ± 1.98 ng/mL
Accuracy (detected/prepared × 100) [5, 12]: 104.4%
Zonarol detected in plasma [5, 12]: 334.2 ± 10.70 ng/mL
Accuracy (detected/prepared × 100) [5, 13]: 105.8%
Zonarol detected in plasma [5, 13]: 21.2 ± 0.33 ng/mL
Accuracy (detected/prepared × 100) [5, 14]: 90.8%
Zonarol detected in plasma [5, 14]: 72.6 ± 0.53 ng/mL
Accuracy (detected/prepared × 100) [5, 15]: 95.2%
Zonarol detected in plasma [5, 15]: 304.6 ± 6.57 ng/mL
Accuracy (detected/prepared × 100) [5, 16]: 112.9%
Zonarol detected in plasma [5, 16]: 22.6 ± 1.24 ng/mL
Accuracy (detected/prepared × 100) [5, 17]: 91.2%
Zonarol detected in plasma [5, 17]: 73.0 ± 1.72 ng/mL
Accuracy (detected/prepared × 100) [5, 18]: 97.2%
Zonarol detected in plasma [5, 18]: 311.1 ± 2.76 ng/mL
time zonarol remained stable in plasma ([5]; stored at 4 °C): at least 12 h
change of zonarol content in plasma ([5]; stored at RT or 37 °C for 4 h): did not change
Accuracy (detected/prepared × 100) [5, 19]: 107.9%
Zonarol detected in plasma [5, 19]: 21.6 ± 1.44 ng/mL
Accuracy (detected/prepared × 100) [5, 20]: 94.4%
Zonarol detected in plasma [5, 20]: 75.5 ± 2.38 ng/mL
Accuracy (detected/prepared × 100) [5, 21]: 101.7%
Zonarol detected in plasma [5, 21]: 325.5 ± 4.56 ng/mL
effect of three freeze–thaw cycles on quantification in plasma ([5]; three freeze–thaw cycles): no effect
Molecule: C=C1CC[C@@H]2C(C)(C)CCC[C@@]2(C)[C@@H]1Cc1cc(O)ccc1O [zonarol]
tissue/body weights (g/g) and visual observation of each tissue vs. mice without bolus treatment ([4]; i.v. 10 mg/kg bolus, data not shown): did not reflect any marked differences
plasma zonarol required to induce suppressive effects on edema formations [6]: approximately 300 ng/mL
effect on carrageenan-induced paw edema [7]: significantly suppressed
effect on DSS-induced ulcerative colitis [8]: suppressed
effect on diet-induced NAFLD (diet-induced NAFLD): prevented
